Where two headings read alike, the source gives them in different places.
What was measured:
[1] = test system: memory and learning deficits; assay: overall conclusion from the experimental results using mice and rats; format: in vivo
[2] = test system: cerebral ischemia-induced learning and memory disorders; assay: 3-panel runway device: effect on cerebral ischemia-induced learning and memory disorders; format: in vivo, rat; details: for number of incorrect responses, Session 1 / number of incorrect responses, Session 2 / number of incorrect responses, Session 3 / number of incorrect responses, Session 4 / number of incorrect responses, Session 5 / number of incorrect responses, Session 6: cerebral ischemia; for minimal effective dose: ip, i.p., read-out: dose improving the disorders induced by cerebral ischemia
Procedure: A 3-panel runway device (length: 175 cm, width: 36 cm and height: 25 cm) comprises a start box, four gateways equipped with three-panel gates and a goal box in which feed are put as the reward. The panel gates were designed so that only one of three panel gates in each gateway might be passable. Training of hungry rats to go out of the start box, reach the goal box and take the feed was made by continuous 6 sessions in 2 minute intervals. The training was carried out every day with the passable panel gate being varied every day. […] The rats are used for the following test. According to the method of Pulsinelli et al., the both vertebral arteries of rat were burnt and cut under anesthesia with pentobarbital. After 24 hours, the whole carotid artery on both sides was blocked for 5 minutes under no anesthesia.

[3] = test system: space recognition disorders induced by scopolamine; assay: Test on memory and study of rat using radial maize (scopolamine-induced space recognition disorder); format: in vivo
Excerpt: Test on memory and study of rat using radial maize
Rats under feed control were put at the central platform (diameter: 25 cm) of an 8-way radial maize (length and width of arm: 48 cm and 10 cm, 40 cm, height from the ground) and trained until they could efficiently take the feed put on the tip of the arm. Numbers of correct choices for the arms where the rats reached for the first time, number of incorrect choices for the arms where the rats reached two or more times and running time until completion of the session were measured for 10 minutes at maximum. When the results with not less than 7 correct choices were shown in 3 continuous sessions it was estimated that acquirement of space recognition was completed. Space recognition disorder was induced in the rats by administering 0.5 mg/kg of scopolamine (i.p., 30 minutes before the session) to study each activity of (±) rolipram, (+) rolipram and (-) rolipram (all administered p.o., 60 minutes before the session).

[4] = mouse acute toxicity test of rolipram; details: in vivo, read-out: ED50 Value (acute toxicity)
Excerpt: (§1) The results of mouse acute toxicity test of rolipram are as follows.

mouse = mouse acute toxicity test of rolipram; details: in vivo
Excerpt: as §1

[5] = test system: mouse in oxygen-short state; assay: Activity on survival time of mouse in oxygen-short state; format: in vivo; details: for Survival Time: 30 minutes before carbon dioxide, Control 195.8 ± 3.7
Procedure: Activity on survival time of mouse in oxygen-short state
Mice were put in a plastic box of 150 cm each in length, width and height, and carbon dioxide was injected from a lower inlet at a rate of 500 ml/min. The period from the start of injection to the respiratory standstill of mice was counted as the survival time. (±) Rolipram, (+) rolipram, and (-) rolipram were all intraperitoneally administered to mice 30 minutes before carbon dioxide was loaded.

[6] = test system: memory and learning disorders induced by scopolamine; assay: 3-panel runway device: activity against memory and learning disorders induced by scopolamine; format: in vivo, rat
Procedure: A 3-panel runway device (length: 175 cm, width: 36 cm and height: 25 cm) comprises a start box, four gateways equipped with three-panel gates and a goal box in which feed are put as the reward. The panel gates were designed so that only one of three panel gates in each gateway might be passable. Training of hungry rats to go out of the start box, reach the goal box and take the feed was made by continuous 6 sessions in 2 minute intervals. The training was carried out every day with the passable panel gate being varied every day. In the test, (1) time taken for the rat to reach the goal box and take the feed after it left the start box, and (2) the number of incorrect choices that the rat made trying to pass the impassable gate were recorded and measured in each session. Rats satisfying for consecutive 3 days the criterion that the total time for 6 sessions in one day was within 60 seconds, the total number of incorrect choices was under 12 and the number of incorrect responses in sessions 2 to 6 was not greater than 8 were estimated to have completely learned. The rats are used for the following test.

[7] = 0.02 mg/kg p.o., 60 minutes before session, + scopolamine 0.5 mg/kg i.p.
[8] = 0.1 mg/kg i.p. + scopolamine 0.56 mg/kg
[9] = 10 mg/kg p.o., 60 minutes before session, + scopolamine 0.5 mg/kg i.p.
[10] = 1 mg/kg i.p. + scopolamine 0.56 mg/kg
[11] = 0.01 mg/kg p.o., 60 minutes before session, + scopolamine 0.5 mg/kg i.p.
[12] = 0.032 mg/kg i.p. + scopolamine 0.56 mg/kg
[13] = scopolamine alone 0.56 mg/kg i.p.

SMILES: COc1ccc(C2CNC(=O)C2)cc1OC1CCCC1 (racemic) [(±) Rolipram]
- activity of improving memory and learning deficits [1]: showed the activity of improving memory and learning deficits
- potency order in improving memory and learning deficits [1]: more potent order of (-) rolipram, (±) rolipram and (+) rolipram
- number of incorrect responses, Session 1 ([2]; 0.1 mg/kg i.p.): 4.25
- number of incorrect responses, Session 2 ([2]; 0.1 mg/kg i.p.): 3.00
- number of incorrect responses, Session 3 ([2]; 0.1 mg/kg i.p.): 2.88
- number of incorrect responses, Session 4 ([2]; 0.1 mg/kg i.p.): 1.88
- number of incorrect responses, Session 5 ([2]; 0.1 mg/kg i.p.): 1.38
- number of incorrect responses, Session 6 ([2]; 0.1 mg/kg i.p.): 1.13
- minimal effective dose ([2]; rat): 0.1 mg/kg
- Number of Correct Choice [3, 7]: 6.9 ± 0.2
- Number of Incorrect Choice [3, 7]: 2.3 ± 1.1
- minimal effective dose ([3]; Rattus norvegicus, po, rat, p.o., read-out: dose showing the activity of improving space recognition disorders induced by scopolamine): 0.02 mg/kg
- LD50 ([4]; ip): 1500 mg/kg
- LD50 ([4]; po): 4000 mg/kg
- safety (mouse): highly safe
- Survival Time ([5]; 1.0 mg/kg i.p.): 220.3 ± 6.9 s
- minimal effective dose ([5]; Mus musculus, ip, mouse, i.p., read-out: dose showing the action of prolonging the survival time): 1 mg/kg
- number of incorrect responses, Session 1 [6, 8]: 5.67
- number of incorrect responses, Session 2 [6, 8]: 3.00
- number of incorrect responses, Session 3 [6, 8]: 1.67
- number of incorrect responses, Session 4 [6, 8]: 1.00
- number of incorrect responses, Session 5 [6, 8]: 1.00
- number of incorrect responses, Session 6 [6, 8]: 1.17
- minimal effective dose ([6]; Rattus norvegicus, ip, rat, i.p., read-out: dose inhibiting the increase in the number of incorrect responses induced by scopolamine): 0.1 mg/kg

SMILES: COc1ccc(C2CNC(=O)C2)cc1OC1CCCC1 (single isomer, unassigned; (+)) [(+) Rolipram]
- activity of improving memory and learning deficits [1]: showed the activity of improving memory and learning deficits
- potency order in improving memory and learning deficits [1]: more potent order of (-) rolipram, (±) rolipram and (+) rolipram
- number of incorrect responses, Session 1 ([2]; 1 mg/kg i.p.): 5.33
- number of incorrect responses, Session 2 ([2]; 1 mg/kg i.p.): 3.67
- number of incorrect responses, Session 3 ([2]; 1 mg/kg i.p.): 2.00
- number of incorrect responses, Session 4 ([2]; 1 mg/kg i.p.): 2.83
- number of incorrect responses, Session 5 ([2]; 1 mg/kg i.p.): 1.67
- number of incorrect responses, Session 6 ([2]; 1 mg/kg i.p.): 1.50
- improvement of the disorders induced by cerebral ischemia ([2]; rat, 1 mg/kg i.p.): no improvement
- Number of Correct Choice [3, 9]: 7.2 ± 0.3
- Number of Incorrect Choice [3, 9]: 2.3 ± 1.6
- dose showing the activity of improving space recognition disorders induced by scopolamine ([3]; rat, p.o.): 10 mg/kg
- LD50 ([4]; ip): > 2300 mg/kg
- LD50 ([4]; po): > 4000 mg/kg
- safety (mouse): highly safe
- Survival Time ([5]; 3.0 mg/kg i.p.): 217.2 ± 5.3 s
- dose showing the action of prolonging the survival time ([5]; mouse, i.p.): 3.0 mg/kg
- number of incorrect responses, Session 1 [6, 10]: 4.00
- number of incorrect responses, Session 2 [6, 10]: 4.17
- number of incorrect responses, Session 3 [6, 10]: 3.00
- number of incorrect responses, Session 4 [6, 10]: 2.00
- number of incorrect responses, Session 5 [6, 10]: 1.83
- number of incorrect responses, Session 6 [6, 10]: 1.67
- dose inhibiting the increase in the number of incorrect responses induced by scopolamine ([6]; rat, i.p.): 1 mg/kg

SMILES: COc1ccc(C2CNC(=O)C2)cc1OC1CCCC1 (single isomer, unassigned; (-)) [(-) Rolipram]
- activity of improving memory and learning deficits [1]: showed the activity of improving memory and learning deficits
- potency order in improving memory and learning deficits [1]: more potent order of (-) rolipram, (±) rolipram and (+) rolipram
- number of incorrect responses, Session 1 ([2]; 0.032 mg/kg i.p.): 5.50
- number of incorrect responses, Session 2 ([2]; 0.032 mg/kg i.p.): 2.00
- number of incorrect responses, Session 3 ([2]; 0.032 mg/kg i.p.): 2.00
- number of incorrect responses, Session 4 ([2]; 0.032 mg/kg i.p.): 1.33
- number of incorrect responses, Session 5 ([2]; 0.032 mg/kg i.p.): 1.00
- number of incorrect responses, Session 6 ([2]; 0.032 mg/kg i.p.): 0.83
- minimal effective dose ([2]; rat): 0.032 mg/kg
- Number of Correct Choice [3, 11]: 6.9 ± 0.3
- Number of Incorrect Choice [3, 11]: 3.2 ± 1.1
- dose showing the activity of improving space recognition disorders induced by scopolamine ([3]; rat, p.o.): 0.01 mg/kg
- safety (mouse): highly safe
- Survival Time ([5]; 0.3 mg/kg i.p.): 219.8 ± 6.3 s
- dose showing the action of prolonging the survival time ([5]; mouse, i.p.): 0.3 mg/kg
- number of incorrect responses, Session 1 [6, 12]: 4.50
- number of incorrect responses, Session 2 [6, 12]: 2.67
- number of incorrect responses, Session 3 [6, 12]: 1.50
- number of incorrect responses, Session 4 [6, 12]: 1.50
- number of incorrect responses, Session 5 [6, 12]: 1.17
- number of incorrect responses, Session 6 [6, 12]: 0.50
- dose inhibiting the increase in the number of incorrect responses induced by scopolamine ([6]; rat, i.p.): 0.032 mg/kg

SMILES: CN1[C@@H]2C[C@@H](OC(=O)[C@H](CO)c3ccccc3)C[C@H]1[C@@H]1O[C@@H]12 [Scopolamine, scopolamine]
- Number of Incorrect Choice ([3]; scopolamine alone 0.5 mg/kg i.p., Control 0.3 ± 0.1): 7.1 ± 0.9
- Number of Correct Choice ([3]; scopolamine alone 0.5 mg/kg i.p., Control 7.9 ± 0.2): 5.9 ± 0.2
- number of incorrect responses, Session 1 [6, 13]: 6.21
- number of incorrect responses, Session 2 [6, 13]: 4.74
- number of incorrect responses, Session 3 [6, 13]: 3.24
- number of incorrect responses, Session 4 [6, 13]: 3.11
- number of incorrect responses, Session 5 [6, 13]: 2.68
- number of incorrect responses, Session 6 [6, 13]: 2.32

— patent US5059612A, “Anti-dementia drug” (priority 1989, dated 1991)
